pIC50: −log10 of the molar value. “And” between values parts separate entries of the source, which are not always exact repeats. Identical values can stand only once.
System: NCI/ADR-RES complex spheroid viability
Experiment: Anticancer human tumor NCI/ADR-RES cell line growth inhibition;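 note: spheroids exposed to compounds for 7 days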;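 for viability, T/C: 100% = DMSO vehicle treated spheroids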
Details: for viability, T/C: stronger effect = lower value
In short: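 Multicellular complex spheroids of tumor cells with human endothelial cells (HUVEC) and mesenchymal stem cells; the LSD1 inhibitor iadademstat was combined with standard-of-care or investigational agents. Top concentration at or near clinical Cmax, half-log dilutions; final DMSO ≤0.25%.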

[1] = curve of first compound, second compound 0.1 µM
[2] = curve of first compound, second compound 0.316 µM
[3] = curve of first compound, second compound 1 µM
[4] = curve of first compound, second compound 3.16 µM
[5] = curve of first compound, second compound 10 µM
[6] = second compound 0.1 µM, first compound 0.00949 µM
[7] = second compound 0.1 µM, first compound 0.03 µM
[8] = second compound 0.1 µM, first compound 0.0949 µM
[9] = second compound 0.1 µM, first compound 0.3 µM
[10] = second compound 0.1 µM, first compound 0.949 µM
[11] = second compound 0.1 µM, first compound 3 µM
[12] = second compound 0.316 µM, first compound 0.00949 µM
[13] = second compound 0.316 µM, first compound 0.03 µM
[14] = second compound 0.316 µM, first compound 0.0949 µM
[15] = second compound 0.316 µM, first compound 0.3 µM
[16] = second compound 0.316 µM, first compound 0.949 µM
[17] = second compound 0.316 µM, first compound 3 µM
[18] = second compound 1 µM, first compound 0.00949 µM
[19] = second compound 1 µM, first compound 0.03 µM
[20] = second compound 1 µM, first compound 0.0949 µM
[21] = second compound 1 µM, first compound 0.3 µM
[22] = second compound 1 µM, first compound 0.949 µM
[23] = second compound 1 µM, first compound 3 µM
[24] = second compound 3.16 µM, first compound 0.00949 µM
[25] = second compound 3.16 µM, first compound 0.03 µM
[26] = second compound 3.16 µM, first compound 0.0949 µM
[27] = second compound 3.16 µM, first compound 0.3 µM
[28] = second compound 3.16 µM, first compound 0.949 µM
[29] = second compound 3.16 µM, first compound 3 µM
[30] = second compound 10 µM, first compound 0.00949 µM
[31] = second compound 10 µM, first compound 0.03 µM
[32] = second compound 10 µM, first compound 0.0949 µM
[33] = second compound 10 µM, first compound 0.3 µM
[34] = second compound 10 µM, first compound 0.949 µM
[35] = second compound 10 µM, first compound 3 µM

`NS(=O)(=O)OCC1CC(n2ccc3c(NC4CCc5ccccc54)ncnc32)CC1O` (configuration not stated) + NC1CC1c1ccc(-c2cccc(O)c2)cc1 showed a pIC50 [1] of 5.95, a pIC50 [2] of 5.99 and a pIC50 [3] of 5.94. For the same compound, the pIC50 [4] was 5.95, the pIC50 [5] was 5.95 and the viability, T/C [6] was 99.2%. It also gave a viability, T/C [7] of 90.5%, a viability, T/C [8] of 92.1% and a viability, T/C [9] of 78.4%. It also gave a viability, T/C [10] of 55%, a viability, T/C [11] of 20.6% and a viability, T/C [12] of 96.7%. For the same compound, the viability, T/C [13] was 100%, the viability, T/C [14] was 85.9% and the viability, T/C [15] was 77.5%. The viability, T/C [16] was 51.6%, the viability, T/C [17] was 22.2% and the viability, T/C [18] was 98.5%. It also gave a viability, T/C [19] of 88.4%, a viability, T/C [20] of 86.7% and a viability, T/C [21] of 78.6%. The viability, T/C [22] was 54.5%, the viability, T/C [23] was 23.2% and the viability, T/C [24] was 96.8%. It also gave a viability, T/C [25] of 94.8%, a viability, T/C [26] of 86.3% and a viability, T/C [27] of 77%. It also gave a viability, T/C [28] of 54.3%, a viability, T/C [29] of 22.2% and a viability, T/C [30] of 92%. For the same compound, the viability, T/C [31] was 89.9%, the viability, T/C [32] was 81% and the viability, T/C [33] was 75.1%. For the same compound, the viability, T/C [34] was 53.3% and the viability, T/C [35] was 27%.
In the case of `Nc1ncn(C2CC(O)C(CO)S2)c(=O)n1` (configuration not stated), the viability, T/C (compound 0.000949 µM) was 86.4% and 84.4%, the viability, T/C (compound 0.003 µM) was 75.9% and 67.9% and the viability, T/C (compound 0.00949 µM) was 53.8% and 40.1%. The viability, T/C (compound 0.03 µM) was 38.7% and 27.5%, the viability, T/C (compound 0.0949 µM) was 21.2% and 11.8% and the viability, T/C (compound 0.3 µM) was 6.02% and 3.16%. The pIC50 (curve of compound) was 7.85 and 8.17.
In the case of `COc1ccc([C@@H](O)c2cc(-c3ncnc4cc(N5CCOCC5)ccc34)c(F)cc2Cl)nn1` + NC1CCC(NC2CC2c2ccccc2)CC1, the pIC50 [1] was 5.44, the pIC50 [2] was 5.40 and the pIC50 [3] was 5.51. It also gave a pIC50 [4] of 5.53, a pIC50 [5] of 5.69 and a viability, T/C (second compound 0.1 µM, first compound 0.0316 µM) of 102%. For the same compound, the viability, T/C (second compound 0.1 µM, first compound 0.1 µM) was 90.2%, the viability, T/C (second compound 0.1 µM, first compound 0.316 µM) was 91.8% and the viability, T/C (second compound 0.1 µM, first compound 1 µM) was 89.8%. The viability, T/C (second compound 0.1 µM, first compound 3.16 µM) was 52.8%, the viability, T/C (second compound 0.1 µM, first compound 10 µM) was 26.9% and the viability, T/C (second compound 0.316 µM, first compound 0.0316 µM) was 108%. For the same compound, the viability, T/C (second compound 0.316 µM, first compound 0.1 µM) was 105%, the viability, T/C (second compound 0.316 µM, first compound 0.316 µM) was 89.7% and the viability, T/C (second compound 0.316 µM, first compound 1 µM) was 82.7%. It also gave a viability, T/C (second compound 0.316 µM, first compound 3.16 µM) of 53.5%, a viability, T/C (second compound 0.316 µM, first compound 10 µM) of 28.2% and a viability, T/C (second compound 1 µM, first compound 0.0316 µM) of 102%. For the same compound, the viability, T/C (second compound 1 µM, first compound 0.1 µM) was 97.8%, the viability, T/C (second compound 1 µM, first compound 0.316 µM) was 90.6% and the viability, T/C (second compound 1 µM, first compound 1 µM) was 74.1%. For the same compound, the viability, T/C (second compound 1 µM, first compound 3.16 µM) was 49.5%, the viability, T/C (second compound 1 µM, first compound 10 µM) was 27.9% and the viability, T/C (second compound 3.16 µM, first compound 0.0316 µM) was 101%. For the same compound, the viability, T/C (second compound 3.16 µM, first compound 0.1 µM) was 105%, the viability, T/C (second compound 3.16 µM, first compound 0.316 µM) was 93.6% and the viability, T/C (second compound 3.16 µM, first compound 1 µM) was 73.3%. For the same compound, the viability, T/C (second compound 3.16 µM, first compound 3.16 µM) was 50%, the viability, T/C (second compound 3.16 µM, first compound 10 µM) was 28.5% and the viability, T/C (second compound 10 µM, first compound 0.0316 µM) was 89.7%. The viability, T/C (second compound 10 µM, first compound 0.1 µM) was 86.3%, the viability, T/C (second compound 10 µM, first compound 0.316 µM) was 85.6% and the viability, T/C (second compound 10 µM, first compound 1 µM) was 64.8%. It also gave a viability, T/C (second compound 10 µM, first compound 3.16 µM) of 41.2% and a viability, T/C (second compound 10 µM, first compound 10 µM) of 24.2%.
`Nc1ccccc1NC(=O)c1ccc(CNC(=O)OCc2cccnc2)cc1` + NC1CCC(NC2CC2c2ccccc2)CC1 was tested, and the pIC50 [1] was 5.93, the pIC50 [2] was 5.87 and the pIC50 [3] was 5.90. For the same compound, the pIC50 [4] was 6.01, the pIC50 [5] was 6.21 and the viability, T/C [6] was 106%. The viability, T/C [7] was 96.8%, the viability, T/C [8] was 93.4% and the viability, T/C [9] was 80.8%. For the same compound, the viability, T/C [10] was 52.6%, the viability, T/C [11] was 32.7% and the viability, T/C [12] was 110%. For the same compound, the viability, T/C [13] was 98.6%, the viability, T/C [14] was 96.8% and the viability, T/C [15] was 93.8%. For the same compound, the viability, T/C [16] was 57.9%, the viability, T/C [17] was 30.5% and the viability, T/C [18] was 106%. It also gave a viability, T/C [19] of 100%, a viability, T/C [20] of 97.6% and a viability, T/C [21] of 76.5%. It also gave a viability, T/C [22] of 56.8%, a viability, T/C [23] of 32.9% and a viability, T/C [24] of 102%. For the same compound, the viability, T/C [25] was 100%, the viability, T/C [26] was 93% and the viability, T/C [27] was 79.6%. The viability, T/C [28] was 49.8%, the viability, T/C [29] was 30.7% and the viability, T/C [30] was 95.1%. It also gave a viability, T/C [31] of 79.8%, a viability, T/C [32] of 72.7% and a viability, T/C [33] of 65.5%. For the same compound, the viability, T/C [34] was 42.4% and the viability, T/C [35] was 22.2%.
